SMILES strings stand for the structures.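 All cell lines were grown in 96-well plates and treated with compound for 48 hours. Here, GI50 denotes the concentration required for 50% inhibition of growth. TGI: total growth inhibition.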 A value given as a limit tells only on which side of the number the result lay.

Some test systems named below: SW-620 colon; NCI-H23 lung; OVCAR-3 ovarian; NCI-H460 lung; NCI-H226 lung; HOP-92 NSCLC; SF-539 CNS; 786-0 renal; NCI-H522 lung; DU-145 prostate.
Common to all, as to assay: NCI tumour cell line growth inhibition, 48 h

Turning to `O=C([O-])CC(=O)[O-].[NH-][C@@H]1CCCC[C@H]1[NH-].[Pt+4]`, the GI50 with SW-620 colon is 2.1 µM; in the assay on NCI-H23 lung, 16.9 µM; in the assay on OVCAR-3 ovarian, 24.9 µM; in the assay on NCI-H460 lung, 3.17 µM; in the assay on NCI-H226 lung, 5.9 µM; in the assay with HOP-92 NSCLC it was more than 100 µM. Also, the GI50 in the assay on SF-539 CNS was 46.8 µM; in the assay with 786-0 renal it was 13.2 µM; with NCI-H522 lung, 18.7 µM; in the assay with DU-145 prostate, 93 µM. Moreover, the TGI is more than 100 µM with SW-620 colon; more than 97.3 µM in the assay with NCI-H23 lung; more than 100 µM with OVCAR-3 ovarian; more than 100 µM with NCI-H460 lung; more than 80.6 µM in the assay on NCI-H226 lung; more than 100 µM in the assay on HOP-92 NSCLC. For the same molecule, the TGI in the assay on SF-539 CNS, in the assay with 786-0 renal, with NCI-H522 lung and in the assay on DU-145 prostate was more than 100 µM each time.

Turning to `CC1(C)CCC[C@]2(C)c3ccccc3C(=O)CC12` (stereo not given in full), the GI50 in the assay with SW-620 colon was 31 µM; with NCI-H23 lung it was 39.4 µM; in the assay on OVCAR-3 ovarian, 41.2 µM; with NCI-H460 lung, 34.9 µM; with NCI-H226 lung, 22.9 µM; in the assay on HOP-92 NSCLC, 60.8 µM. The GI50 in the assay with SF-539 CNS was 27.1 µM; in the assay on 786-0 renal, 64.9 µM; with NCI-H522 lung, 27.7 µM; in the assay on DU-145 prostate, 65.7 µM. The TGI in the assay with SW-620 colon, in the assay with NCI-H23 lung, with OVCAR-3 ovarian, in the assay on NCI-H460 lung, in the assay on NCI-H226 lung and in the assay on HOP-92 NSCLC was more than 100 µM throughout. The TGI is 75.7 µM with SF-539 CNS, more than 100 µM with 786-0 renal, 76.1 µM in the assay with NCI-H522 lung and more than 100 µM in the assay with DU-145 prostate.

Turning to `COc1ccc2nc3cc(Cl)ccc3c(Nc3cc(CN4CCCC4)c(O)c(CN4CCCC4)c3)c2n1`, the GI50 was 0.629 µM in the assay with SW-620 colon; 1.72 µM in the assay with NCI-H23 lung; 3.07 µM in the assay with OVCAR-3 ovarian; 0.638 µM with NCI-H460 lung; 1.55 µM in the assay with NCI-H226 lung; 1.04 µM in the assay on HOP-92 NSCLC. Further, the GI50 is 1.89 µM in the assay with SF-539 CNS, 1.87 µM in the assay on 786-0 renal, 1.47 µM in the assay with NCI-H522 lung and 2.43 µM in the assay with DU-145 prostate. In addition, the TGI in the assay with SW-620 colon amounted to 4.95 µM; in the assay on NCI-H23 lung, 3.88 µM; with OVCAR-3 ovarian, 14.7 µM; in the assay on NCI-H460 lung, 2.49 µM; in the assay with NCI-H226 lung it was 3.24 µM; in the assay on HOP-92 NSCLC it was 3.74 µM. The TGI with SF-539 CNS came out at 3.88 µM; in the assay with 786-0 renal, 11.4 µM; in the assay on NCI-H522 lung, 3.14 µM; in the assay on DU-145 prostate, 13.6 µM.

Values taken from PubChem BioAssay (NCI).
